Among the data in US12691182B2, “Maytansinoid derivatives, conjugates thereof, and methods of use” (priority 2016, dated 2026) are C4-2 % kill, IC50 and SKBr-3 % kill values, retold here.

The test system of one assay is C4-2 (STEAP2+) cells. The assay can be described thus: In vitro cytotoxicity assay, C4-2 cells (CellTiter-Glo viability). It counts as cell-based. Particulars: naked payload, 5 days; for C4-2 % kill: % kill reported for the highest dose; for IC50: CellTiter-Glo. As for the experimental part: (§1) In this Example, the ability of various antibody-drug conjugates and naked payloads to kill antigen-expressing tumor cells in vitro was assessed.
C4-2 (STEAP2+) cells were seeded in 96 well plates at 4000 cells per well in complete growth media and grown overnight. For cell viability curves, serially diluted conjugates or naked payloads were added to the cells at final concentrations ranging from 100 nM to 5 pM and incubated for 5 days. To measure viability, cells were incubated with CellTiter-Glo reagents for 5 minutes and luminescence was determined on a Victor plate reader (PerkinElmer). IC50 values were determined from a four-parameter logistic equation over a 10-point response curve (GraphPad Prism).
(§2) All IC50s are expressed in nM concentration and % kill is reported for the highest dose. All curves and IC50 values are corrected for payload equivalents. The plot of % Cell Viability vs. Log 10 [M]

The test system of the next assay is SKBR3 (Her2+) cells. The assay can be described thus: In vitro cytotoxicity assay, SKBR3 cells (CCK8 viability). It counts as cell-based. Particulars: naked payload, SKBr-3 cells, 3 days; for SKBr-3 % kill: % kill reported for the highest dose; for IC50: CCK8. As for the experimental part: as §1
SKBR3 (Her2+) cells were seeded in 96 well plates at 8000 cells per well in complete growth media and grown overnight. For cell viability curves, serially diluted conjugates or naked payloads were added to the cells at final concentrations ranging from 100 nM to 5 pM and incubated for 3 days. To measure viability, cells were incubated with CCK8 (Dojindo) for the final 2 hours and the absorbance at 450 nm (OD450) was determined on a Victor (Perkin Elmer). Background OD450 levels determined from digitonin (40 nM) treated cells were subtracted from all wells and viability is expressed as a percentage of the untreated controls. IC50 values were determined from a four-parameter logistic equation over a 10-point response curve (GraphPad Prism). […] All curves and IC50 values are corrected for payload equivalents. The plot of % Cell Viability vs. Log 10 [M]
as §2

Regarding `COc1cc2cc(c1Cl)N(C)C(=O)CC(OC(=O)Nc1ccc(Cl)cc1N)C1(C)OC1C(C)C1CC(O)(NC(=O)O1)C(OC)C=CC=C(C)C2` (stereo not drawn) [Compound 30b, Maytan-3-O-carbamoyl-N-(4-chloro-2-amino)benzene], in the assay on C4-2 (STEAP2+) cells, the C4-2 % kill entry is “* (* indicates % kill less than 85)” and the IC50 was ≥ 10 nM. In the assay with SKBR3 (Her2+) cells, the SKBr-3 % kill result was “**** (**** indicates % kill greater than, or equal to, 95 and less than 99)”; the half-maximal inhibitory concentration (IC50) was in the range of 0.1 to 1 nM.
In the case of `COc1cc2cc(c1Cl)N(C)C(=O)CC(OC(=O)Nc1c(C)cccc1N)C1(C)OC1C(C)C1CC(O)(NC(=O)O1)C(OC)C=CC=C(C)C2` (stereo not drawn) [Compound 30f, Maytan-3-O-carbamoyl-N-(6-methyl-2-amino)benzene], in the assay with C4-2 (STEAP2+) cells, the C4-2 % kill entry was “**** (**** indicates % kill greater than, or equal to, 95 and less than 99)”; the IC50 was in the range of 1 to 10 nM. In the assay with SKBR3 (Her2+) cells, the SKBr-3 % kill entry is reported as “***** (***** indicates % kill greater than, or equal to, 99)” and the IC50 is 0.1 to 1 nM.
For the molecule `COc1cc2cc(c1Cl)N(C)C(=O)C[C@H](OC(=O)Nc1ccc(F)cc1N)[C@]1(C)O[C@H]1[C@H](C)[C@@H]1C[C@@](O)(NC(=O)O1)[C@H](OC)/C=C/C=C(\C)C2` [Compound 30g, Maytan-3-O-carbamoyl-N-(4-fluoro-2-amino)benzene], in the assay on C4-2 (STEAP2+) cells, the C4-2 % kill result is reported as “***** (***** indicates % kill greater than, or equal to, 99)” and the IC50 was 1 to 10 nM. Besides, in the assay with SKBR3 (Her2+) cells, the SKBr-3 % kill result is reported as “***** (***** indicates % kill greater than, or equal to, 99)” and the IC50 is 0.1 to 1 nM.
Consider `COc1cc2cc(c1Cl)N(C)C(=O)C[C@H](OC(=O)Nc1cc(N)ccc1F)[C@]1(C)O[C@H]1[C@H](C)[C@@H]1C[C@@](O)(NC(=O)O1)[C@H](OC)/C=C/C=C(\C)C2` [Compound 30h, Maytan-3-O-carbamoyl-N-(2-fluoro-5-amino)benzene], for which, in the assay with C4-2 (STEAP2+) cells, the C4-2 % kill entry is on record as “* (* indicates % kill less than 85)” and the IC50 was 1 to 10 nM. Also, in the assay on SKBR3 (Her2+) cells, the SKBr-3 % kill entry is “**** (**** indicates % kill greater than, or equal to, 95 and less than 99)”; the IC50 fell in the range of 0.1 to 1 nM.
`COc1ccc(NC(=O)O[C@H]2CC(=O)N(C)c3cc(cc(OC)c3Cl)C/C(C)=C/C=C/[C@@H](OC)[C@@]3(O)C[C@H](OC(=O)N3)[C@@H](C)[C@@H]3O[C@@]23C)c(N)c1` [Compound 30i, Maytan-3-O-carbamoyl-N-(4-methoxy-2-amino)benzene]: in the assay on C4-2 (STEAP2+) cells, the C4-2 % kill result is reported as “***** (***** indicates % kill greater than, or equal to, 99)” and the IC50 is ≥ 10 nM. Moreover, in the assay on SKBR3 (Her2+) cells, the SKBr-3 % kill result is reported as “***** (***** indicates % kill greater than, or equal to, 99)” and the IC50 lay in the range of 1 to 10 nM.
Consider `COc1cc2cc(c1Cl)N(C)C(=O)CC(OC(=O)Nc1cc(Cl)c(F)cc1N)C1(C)OC1C(C)C1CC(O)(NC(=O)O1)C(OC)C=CC=C(C)C2` (stereo not drawn) [Compound 30o, Maytan-3-O-carbamoyl-N-(4-fluoro-5-chloro-2-amino)benzene], for which, in the assay on C4-2 (STEAP2+) cells, the C4-2 % kill entry is “* (* indicates % kill less than 85)” and the IC50 was ≥ 10 nM. Besides, in the assay on SKBR3 (Her2+) cells, the SKBr-3 % kill result is given as “***** (***** indicates % kill greater than, or equal to, 99)” and the IC50 is 0.1 to 1 nM.
For the molecule `COc1cc2cc(c1Cl)N(C)C(=O)C[C@H](OC(=O)Nc1cc(N3CCOCC3)c(N)cc1C)[C@]1(C)O[C@H]1[C@H](C)[C@@H]1C[C@@](O)(NC(=O)O1)[C@H](OC)/C=C/C=C(\C)C2` [Compound 30p, Maytan-3-O-carbamoyl-N-(4-amino-2-methyl-5-morpholin-4-yl)benzene], the IC50 in the assay on C4-2 (STEAP2+) cells and in the assay with SKBR3 (Her2+) cells was ≥ 10 nM throughout. For the same molecule, the SKBr-3 % kill result in the assay with SKBR3 (Her2+) cells is on record as “* (* indicates % kill less than 85)”.
